Results taken from US7851474B2, “Dipiperazinyl ketones and related analogues” (Neurogen Corporation, priority 2005, dated 2010).

Target: T1, chimeric human H3 receptor (Homo sapiens, UniProt Q9Y5N1, E19D)
T1 construct: made in house; host or cells: Sf9 insect cells (baculovirus infection); P2 membrane preparation
Experiment: Chimeric human H3 receptor GTP binding assay (agonist-stimulated GTP-gamma35S binding, Example 7)
Type: biochemical
Settings: "*" in Ki of Table II; assay of Example 7; read-out: Ki
How it was run: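 Sf9 membranes co-expressing the chimeric receptor and heterotrimeric G-protein subunits, 35 μg protein per tube, in pH 7.4 Tris buffer with 10 μM GDP. Test compounds at 10^−10 to 10^−6 M with 1 μM histamine, 60 min at room temperature. Filter-bound GTP-gamma^35S read by scintillation; IC50 from non-linear regression of dose-response curves.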

T1 sequence (Q9Y5N1 with tags, fused parts or gaps E19D): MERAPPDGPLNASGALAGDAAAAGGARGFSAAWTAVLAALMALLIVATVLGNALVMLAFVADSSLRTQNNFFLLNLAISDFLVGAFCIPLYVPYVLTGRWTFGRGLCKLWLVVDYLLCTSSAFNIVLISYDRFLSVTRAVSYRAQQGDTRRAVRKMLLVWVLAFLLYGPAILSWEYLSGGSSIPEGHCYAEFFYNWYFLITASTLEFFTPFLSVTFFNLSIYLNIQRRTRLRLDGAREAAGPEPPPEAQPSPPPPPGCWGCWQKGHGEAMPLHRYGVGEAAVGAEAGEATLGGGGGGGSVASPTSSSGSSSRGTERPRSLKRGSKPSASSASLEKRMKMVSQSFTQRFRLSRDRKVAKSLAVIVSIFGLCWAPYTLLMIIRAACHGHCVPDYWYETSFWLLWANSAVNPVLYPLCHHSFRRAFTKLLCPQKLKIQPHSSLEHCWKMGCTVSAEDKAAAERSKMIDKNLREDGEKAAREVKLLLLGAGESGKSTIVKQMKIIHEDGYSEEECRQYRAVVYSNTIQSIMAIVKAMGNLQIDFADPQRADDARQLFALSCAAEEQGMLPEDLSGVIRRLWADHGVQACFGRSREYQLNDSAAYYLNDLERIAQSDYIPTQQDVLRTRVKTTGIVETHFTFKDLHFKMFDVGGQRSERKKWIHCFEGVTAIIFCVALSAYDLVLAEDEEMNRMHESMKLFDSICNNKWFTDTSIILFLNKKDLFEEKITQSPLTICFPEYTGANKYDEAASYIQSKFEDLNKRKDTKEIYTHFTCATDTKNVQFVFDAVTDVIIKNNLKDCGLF

Structure (SMILES)	Ki
CC(C)N1CCN(C(=O)CN2CCC(N(C)C)C2)CC1 (centres unmarked) [Compound 446, 1-[2-(4-isopropylpiperazin-1-yl)-2-oxoethyl]-N,N-dimethylpyrrolidin-3-amine]	< 1000 nM
CCC(C)N1CCN(C(=O)CN2CCC(N3CCCCC3)CC2)CC1 (centres unmarked) [Compound 447]	< 1000 nM
CCC(C)N1CCN(C(=O)CN2CCC(N3CCC(C)CC3)CC2)CC1 (centres unmarked) [Compound 448, 1′-[2-(4-sec-butylpiperazin-1-yl)-2-oxoethyl]-4-methyl-1,4-bipiperidine]	< 1000 nM
CCCN(CC1CC1)C1CCN(CC(=O)N2CCN(C(C)CC)CC2)CC1 (centres unmarked) [Compound 449, 1-[2-(4-sec-butylpiperazin-1-yl)-2-oxoethyl]-N-(cyclopropylmethyl)-N-propylpiperidin-4-amine]	< 1000 nM
CCCN(CCC)C1CCN(CC(=O)N2CCN(C(C)CC)CC2)CC1 (centres unmarked) [Compound 450, 1-[2-(4-sec-butylpiperazin-1-yl)-2-oxoethyl]-N,N-dipropylpiperidin-4-amine]	< 1000 nM
O=C(CN1CCN(c2ccc(-c3ccc4c(c3)OCO4)cc2)CC1)N1CCN(C2CCC2)CC1 [Compound 458, 1-[4-(1,3-benzodioxol-5-yl)phenyl]-4-[2-(4-cyclobutylpiperazin-1-yl)-2-oxoethyl]piperazine]	< 1000 nM

The next lines start with the values.

Ki	Structure (SMILES)
< 1000 nM	CC(C)N1CCN(C(=O)CN2CCN(c3ccc(C(F)(F)F)cn3)CC2C)CC1 (centres unmarked) [Compound 445, 1-[2-(4-isopropylpiperazin-1-yl)-2-oxoethyl]-2-methyl-4-[5-(trifluoromethyl)pyridin-2-yl]piperazine]
< 1000 nM	CC1CN(c2ccc(C(F)(F)F)cn2)CCN1CC(=O)N1CCN(C(C)(C)C)CC1 (centres unmarked) [Compound 451, 1-[2-(4-tert-butylpiperazin-1-yl)-2-oxoethyl]-2-methyl-4-[5-(trifluoromethyl)pyridin-2-yl]piperazine]
< 1000 nM	O=C(CN1CCN(c2ccc(-c3cc(C(F)(F)F)ccc3Cl)cc2)CC1)N1CCN(C2CCC2)CC1 [Compound 453, 1-[2′-chloro-5′-(trifluoromethyl)biphenyl-4-yl]-4-[2-(4-cyclobutylpiperazin-1-yl)-2-oxoethyl]piperazine]
< 1000 nM	CC(=O)c1cccc(-c2cnc(N3CCN(CC(=O)N4CCN(C5CCC5)CC4)CC3)cn2)c1 [Compound 454, 1-[3-(5-{4-[2-(4-cyclobutylpiperazin-1-yl)-2-oxoethyl]piperazin-1-yl}pyrazin-2-yl}phenyl]ethanone]
< 1000 nM	CC(=O)c1cccc(-c2ccc(N3CCN(CC(=O)N4CCN(C5CCC5)CC4)CC3)nn2)c1 [Compound 455, 1-[3-(6-{4-[2-(4-cyclobutylpiperazin-1-yl)-2-oxoethyl]piperazin-1-yl}pyridazin-3-yl)phenyl]ethanone]
< 1000 nM	O=C(CN1CCN(c2ccc(-c3cc(C(F)(F)F)cc(C(F)(F)F)c3)cc2)CC1)N1CCN(C2CCC2)CC1 [Compound 457, 1-[3′,5′-bis(trifluoromethyl)biphenyl-4-yl]-4-[2-(4-cyclobutylpiperazin-1-yl)-2-oxoethyl]piperazine]

Same assay, conditions: assay of Example 7; symbol * in column headed Ki of Table II; read-out: Ki

Structure (SMILES)	Ki
O=C(CN1CCC(N2CCCCC2)CC1)N1CCN(C2CCC2)CC1 [Compound 421, 1′-[2-(4-cyclobutylpiperazin-1-yl)-2-oxoethyl]-1,4′-bipiperidine]	< 1000 nM
CC(C)N1C(=O)C2(CCN(CC(=O)N3CCN(C4CCC4)CC3)CC2)c2ccccc21 [Compound 422, 1′-[2-(4-cyclobutylpiperazin-1-yl)-2-oxoethyl]-1-isopropylspiro[indole-3,4′-piperidin]-2(1H)-one]	< 1000 nM
O=C(CN1CCC2(CC1)C(=O)N(c1ccccn1)c1ccccc12)N1CCN(C2CCC2)CC1 [Compound 424, 1′-[2-(4-cyclobutylpiperazin-1-yl)-2-oxoethyl]-1-pyridin-2-ylspiro[indole-3,4′-piperidin]-2(1H)-one]	< 1000 nM
COc1ccc(CN2C(=O)c3ccccc3C23CCN(CC(=O)N2CCN(C4CCC4)CC2)CC3)c(OC)c1 [Compound 425, 1′-[2-(4-cyclobutylpiperazin-1-yl)-2-oxoethyl]-2-(2,4-dimethoxybenzyl)spiro[isoindole-1,4′-piperidin]-3(2H)-one]	< 1000 nM
CC(C)N1C(=O)c2ccccc2C12CCN(CC(=O)N1CCN(C3CCC3)CC1)CC2 [Compound 426, 1-[2-(4-cyclobutylpiperazin-1-yl)-2-oxoethyl]-2-isopropylspiro[isoindole-1,4′-piperidin]-3(2H)-one]	< 1000 nM
CC1CCN(C2CCN(CC(=O)N3CCN(C4CCC4)CC3)CC2)CC1 [Compound 428, 1′-[2-(4-cyclobutylpiperazin-1-yl)-2-oxoethyl]-4-methyl-1,4′-bipiperidine]	< 1000 nM
COc1ccc(CN2Cc3cccnc3C23CCN(CC(=O)N2CCN(C4CCC4)CC2)CC3)c(OC)c1 [Compound 429, 1-[2-(4-cyclobutylpiperazin-1-yl)-2-oxoethyl]-6′-(2,4-dimethoxybenzyl)-5′,6′-dihydrospiro[piperidine-4,7′-pyrrolo[3,4-b]pyridine]]	< 1000 nM
COc1cccc(CN2C(=O)c3cccnc3C23CCN(CC(=O)N2CCN(C4CCC4)CC2)CC3)c1 [Compound 430, 1-[2-(4-cyclobutylpiperazin-1-yl)-2-oxoethyl]-6′-(3-methoxybenzyl) spiro[piperidine-4,7-pyrrolo[3,4-b]pyridin]-5′(6′H)-one]	< 1000 nM
CCCN(CC1CC1)C1CCN(CC(=O)N2CCN(C3CCC3)CC2)CC1 [Compound 431, 1-[2-(4-cyclobutylpiperazin-1-yl)-2-oxoethyl]-N-(cyclopropylmethyl)-N-propylpiperidin-4-amine]	< 1000 nM
CCCN(CCC)C1CCN(CC(=O)N2CCN(C3CCC3)CC2)CC1 [Compound 432, 1-[2-(4-cyclobutylpiperazin-1-yl)-2-oxoethyl]-N,N-dipropylpiperidin-4-amine]	< 1000 nM
O=C(CN1CCC2(CC1)C(=O)Nc1ccccc12)N1CCN(C2CCC2)CC1 [Compound 433, 1′-[2-(4-cyclobutylpiperazin-1-yl)-2-oxoethyl]spiro[indole-3,4′-piperidin]-2(1H)-one]	< 1000 nM
O=C1NC2(CCN(CC(=O)N3CCN(C4CCC4)CC3)CC2)c2ccccc21 [Compound 434, 1′-[2-(4-cyclobutylpiperazin-1-yl)-2-oxoethyl]spiro[isoindole-1,4′-piperidin]-3(2H)-one]	< 1000 nM
CCCN(CC1CC1)C1CCN(CC(=O)N2CCN(C3CCCCC3)CC2)CC1 [Compound 440, 1-[2-(4-cyclohexylpiperazin-1-yl)-2-oxoethyl]-N-(cyclopropylmethyl)-N-propylpiperidin-4-amine]	< 1000 nM

Other lines, results leading:

Ki	Structure (SMILES)
< 1000 nM	CC(Oc1ccccc1Cl)C(=O)N1CCN(CC(=O)N2CCN(C3CCC3)CC2)CC1 (centres unmarked) [Compound 417, 1-[2-(2-chlorophenoxy)propanoyl]-4-[2-(4-cyclobutylpiperazin-1-yl)-2-oxoethyl]piperazine]
< 1000 nM	CC(Oc1cccc(Cl)c1)C(=O)N1CCN(CC(=O)N2CCN(C3CCC3)CC2)CC1 (centres unmarked) [Compound 418, 1-[2-(3-chlorophenoxy)propanoyl]-4-[2-(4-cyclobutylpiperazin-1-yl)-2-oxoethyl]piperazine]
< 1000 nM	CN1C(=O)C2(CCN(CC(=O)N3CCN(C4CCC4)CC3)CC2)c2ccccc21 [Compound 423]
< 1000 nM	CC1CN(c2ccc(C(F)(F)F)cn2)CCN1CC(=O)N1CCN(C2CCC2)CC1 (centres unmarked) [Compound 427, 1-[2-(4-cyclobutylpiperazin-1-yl)-2-oxoethyl]-2-methyl-4-[5-(trifluoromethyl)pyridin-2-yl]piperazine]
< 1000 nM	O=C(CN1CCC2(CC1)C(=O)Nc1cccnc12)N1CCN(C2CCC2)CC1 [Compound 435, 1-[2-(4-cyclobutylpiperazin-1-yl)-2-oxoethyl]spiro[piperidine-4,3′-pyrrolo[3,2-b]pyridin]-2′(1′H)-one]
< 1000 nM	O=C1NC2(CCN(CC(=O)N3CCN(C4CCC4)CC3)CC2)c2ncccc21 [Compound 436, 1-[2-(4-cyclobutylpiperazin-1-yl)-2-oxoethyl]spiro[piperidine-4,7′-pyrrolo[3,4-b]pyridin]-5′(6′H)-one]
< 1000 nM	O=C(CN1CCC(N2CCCCC2)CC1)N1CCN(C2CCCCC2)CC1 [Compound 437, 1′-[2-(4-cyclohexylpiperazin-1-yl)-2-oxoethyl]-1,4′-bipiperidine]
< 1000 nM	CC1CN(c2ccc(C(F)(F)F)cn2)CCN1CC(=O)N1CCN(C2CCCCC2)CC1 (centres unmarked) [Compound 438, 1-[2-(4-cyclohexylpiperazin-1-yl)-2-oxoethyl]-2-methyl-4-[5-(trifluoromethyl)pyridin-2-yl]piperazine]
< 1000 nM	CC1CCN(C2CCN(CC(=O)N3CCN(C4CCCCC4)CC3)CC2)CC1 [Compound 439, 1′-[2-(4-cyclohexylpiperazin-1-yl)-2-oxoethyl]-4-methyl-1,4′-bipiperidine]
< 1000 nM	CCCN(CCC)C1CCN(CC(=O)N2CCN(C3CCCCC3)CC2)CC1 [Compound 441, 1-[2-(4-cyclohexylpiperazin-1-yl)-2-oxoethyl]-N,N-dipropylpiperidin-4-amine]
< 1000 nM	CC1CN(c2ccc(C(F)(F)F)cn2)CCN1CC(=O)N1CCN(C2CCCC2)CC1 (centres unmarked) [Compound 442, 1-[2-(4-cyclopentylpiperazin-1-yl)-2-oxoethyl]-2-methyl-4-[5-(trifluoromethyl)pyridin-2-yl]piperazine]
< 1000 nM	CCN(CC)C1CCN(CC(=O)N2CCN(C3CCCC3)CC2)C1 (centres unmarked) [Compound 443, 1-[2-(4-cyclopentylpiperazin-1-yl)-2-oxoethyl]-N,N-diethylpyrrolidin-3-amine]
< 1000 nM	CN(C)C1CCN(CC(=O)N2CCN(C3CCCC3)CC2)C1 (centres unmarked) [Compound 444, 1-[2-(4-cyclopentylpiperazin-1-yl)-2-oxoethyl]-N,N-dimethylpyrrolidin-3-amine]
